One block for each compound: values may come before it.
How the values were obtained:
[1] = target: T1, MAP kinase-activated protein kinase 2 (Homo sapiens, UniProt P49137); test: Inhibition of recombinant human N-terminal GST-tagged MK2 (46 to 400 residues) expressed in Escherichia coli assessed as reduction in recombinant human HSP27 phosphorylation at 200 uM after 30 mins by Western blot analysis relative to control
Target sequence in this assay (P49137 whole entry, looked up, the tested form may be a part): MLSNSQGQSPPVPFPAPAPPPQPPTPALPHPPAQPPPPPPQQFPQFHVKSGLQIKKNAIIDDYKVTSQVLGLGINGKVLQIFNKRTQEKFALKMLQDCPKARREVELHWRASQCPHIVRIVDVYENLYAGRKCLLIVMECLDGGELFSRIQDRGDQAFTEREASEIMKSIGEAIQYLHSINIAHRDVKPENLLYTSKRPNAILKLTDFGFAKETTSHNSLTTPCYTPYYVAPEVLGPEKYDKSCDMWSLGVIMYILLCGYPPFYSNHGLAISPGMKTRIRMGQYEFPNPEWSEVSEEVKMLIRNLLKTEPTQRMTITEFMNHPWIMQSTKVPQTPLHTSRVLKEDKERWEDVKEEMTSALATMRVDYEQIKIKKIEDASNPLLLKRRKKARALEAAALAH

[2] = Inhibition of MRP2 in MDCK cells after 15 mins by Calcein-AM assay; format: cell-based, Canis lupus familiaris
[3] = Inhibition of P-gp in MDCK-MDR1 cells after 30 mins by Calcein-AM assay; format: cell-based, Canis lupus familiaris
Bile salt export pump = Bile salt export pump (Homo sapiens, UniProt O95342); test: Inhibition of human BSEP expressed in recombinant baculovirus infected insect Sf9 cell membrane vesicles assessed as [3H]-taurocholate transport preincubated for 5 mins followed by ATP or AMP addition measured after 5 mins by scintillation counting method
Fibroblast [4] = test: Inhibition of TGF-beta1-induced CTGF expression in serum-starved human keloid fibroblasts at 10 uM preincubated for 2 hrs followed TGF-beta1 addition measured after 24 hrs by Western blot analysis relative to control; format: functional
[5] = target: T1, MAP kinase-activated protein kinase 2; test: Inhibition of recombinant human N-terminal GST-tagged MK2 (46 to 400 residues) expressed in Escherichia coli in presence of radiolabelled ATP by radiometric assay
Target sequence in this assay (P49137 whole entry, the tested form may be a part): as the sequence (P49137 whole entry, looked up, the tested form may be a part) above

[6] = target: Myosin light chain kinase, smooth muscle (Homo sapiens) (UniProt Q15746); test: Inhibition of recombinant human N-terminal His6-tagged MLCK (1425 to 1771 residues) expressed in baculovirus infected Sf21 cells assessed as residual activity at 30 uM in presence of radiolabelled ATP by radiometric assay relative to control
[7] = target: RAC-beta serine/threonine-protein kinase (Homo sapiens) (UniProt P31751); test: Inhibition of recombinant human N-terminal His6-tagged PKBbeta (120 to 481 residues) expressed in baculovirus infected Sf21 cells assessed as residual activity at 30 uM in presence of radiolabelled ATP by radiometric assay relative to control
[8] = target: Rho-associated protein kinase 1 (Homo sapiens) (UniProt Q13464); test: Inhibition of recombinant human N-terminal His6-tagged ROCK1 (17 to 535 residues) expressed in baculovirus infected Sf21 cells assessed as residual activity at 30 uM in presence of radiolabelled ATP by radiometric assay relative to control
[9] = target: T2, Interleukin-1 receptor-associated kinase 4 (Homo sapiens) (UniProt Q9NWZ3); test: Inhibition of full length recombinant human N-terminal His6-tagged IRAK4 expressed in baculovirus infected Sf21 cells assessed as residual activity at 30 uM in presence of radiolabelled ATP by radiometric assay relative to control
T2 sequence (whole entry): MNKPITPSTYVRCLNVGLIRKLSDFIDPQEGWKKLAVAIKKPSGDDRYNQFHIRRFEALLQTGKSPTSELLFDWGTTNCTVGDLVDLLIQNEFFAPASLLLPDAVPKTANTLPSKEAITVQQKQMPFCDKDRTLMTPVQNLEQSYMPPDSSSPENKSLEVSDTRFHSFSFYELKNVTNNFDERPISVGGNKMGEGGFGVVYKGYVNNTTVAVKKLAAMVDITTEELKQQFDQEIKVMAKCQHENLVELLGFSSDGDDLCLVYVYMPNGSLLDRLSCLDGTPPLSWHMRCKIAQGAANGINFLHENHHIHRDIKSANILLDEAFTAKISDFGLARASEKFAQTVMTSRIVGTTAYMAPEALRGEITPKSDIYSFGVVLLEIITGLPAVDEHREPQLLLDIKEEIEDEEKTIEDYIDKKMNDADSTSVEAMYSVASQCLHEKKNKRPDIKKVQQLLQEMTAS

Fibroblast [10] = test: Inhibition of TGF-beta1-induced collagen type 1 expression in serum-starved human keloid fibroblasts at 10 uM preincubated for 2 hrs followed TGF-beta1 addition measured after 24 hrs by Western blot analysis relative to control; format: functional
[11] = target: Protein kinase C delta type (Homo sapiens) (UniProt Q05655); test: Inhibition of recombinant human N-terminal His6-tagged amino acids 2-end of PKCdelta expressed in Sf21 cells assessed as residual activity at 30 uM in presence of radiolabelled ATP by radiometric assay relative to control
[12] = target: Mitogen-activated protein kinase 14 (Homo sapiens) (UniProt Q16539); test: Inhibition of full length recombinant human N-terminal GST-tagged p38alpha MAP kinase expressed in Escherichia coli assessed as residual activity at 30 uM in presence of radiolabelled ATP by radiometric assay relative to control
[13] = target: RAC-beta serine/threonine-protein kinase (Homo sapiens) (UniProt P31751); test: Inhibition of recombinant human N-terminal His6-tagged PKBbeta (120 to 481 residues) expressed in baculovirus infected Sf21 cells assessed as residual activity at 300 uM in presence of radiolabelled ATP by radiometric assay relative to control
[14] = target: Protein kinase C delta type (Homo sapiens) (UniProt Q05655); test: Inhibition of recombinant human N-terminal His6-tagged amino acids 2-end of PKCdelta expressed in Sf21 cells assessed as residual activity at 300 uM in presence of radiolabelled ATP by radiometric assay relative to control
[15] = target: Rho-associated protein kinase 1 (Homo sapiens) (UniProt Q13464); test: Inhibition of recombinant human N-terminal His6-tagged ROCK1 (17 to 535 residues) expressed in baculovirus infected Sf21 cells assessed as residual activity at 300 uM in presence of radiolabelled ATP by radiometric assay relative to control
[16] = target: T2, Interleukin-1 receptor-associated kinase 4 (Homo sapiens); test: Inhibition of full length recombinant human N-terminal His6-tagged IRAK4 expressed in baculovirus infected Sf21 cells assessed as residual activity at 300 uM in presence of radiolabelled ATP by radiometric assay relative to control
[17] = target: Myosin light chain kinase, smooth muscle (Homo sapiens) (UniProt Q15746); test: Inhibition of recombinant human N-terminal His6-tagged MLCK (1425 to 1771 residues) expressed in baculovirus infected Sf21 cells assessed as residual activity at 300 uM in presence of radiolabelled ATP by radiometric assay relative to control
[18] = target: Mitogen-activated protein kinase 14 (Homo sapiens) (UniProt Q16539); test: Inhibition of full length recombinant human N-terminal GST-tagged p38alpha MAP kinase expressed in Escherichia coli assessed as residual activity at 300 uM in presence of radiolabelled ATP by radiometric assay relative to control
[19] = target: T1, MAP kinase-activated protein kinase 2; test: Inhibition of MK2 in human U937 cells assessed as reduction in LPS-stimulated HSP27 phosphorylation at Ser82 preincubated for 1 hr followed by LPS addition measured after 30 mins by Western blot analysis; format: cell-based, U-937
Target sequence in this assay (P49137 whole entry, the tested form may be a part): as the sequence (P49137 whole entry, looked up, the tested form may be a part) above

Rattus norvegicus [20] = test: Anti-inflammatory activity in po dosed Lewis rat model of LPS-induced acute endotoxemia inflammation assessed as inhibition of LPS-induced TNFalpha production administered through gavage pretreated for 4 hrs followed by LPS challenge measured after 90 mins by ELISA relative to control; format: functional
U-937 = test: Inhibition of LPS-induced TNFalpha production in human U937 cells preincubated for 1 hr followed by LPS addition measured after 4 hrs by electro-chemiluminescence method; format: functional, cell-based
Canis familiaris [21] = test: Hepatotoxicity in beagle dog assessed as increase in serum bile acids at 750 mg/kg, po qd administered as single dose through gavage by LC-MS/MS analysis relative to control; format: toxicity, organism-based, Canis lupus familiaris; settings: in vivo
[22] = Tmax in Sprague-Dawley rat plasma at 3 mg/kg, po; format: ADME, organism-based
[23] = Terminal half life in Sprague-Dawley rat plasma at 3 mg/kg, po; format: ADME, organism-based; settings: read-out: beta t1/2 (converted)
Rattus norvegicus [24] = test: Anti-inflammatory activity in Lewis rat model of Streptococcal cell wall-induced arthritis assessed as reduction in chronic hind paw swelling up to 100 mg/kg, po bid administered through gavage for 10 to 21 days measured on day 21 by displacement plethysmometric method relative to control; format: functional
Canis familiaris [25] = test: Hepatotoxicity in beagle dog assessed as increase in total bilirubin at 750 mg/kg, po qd administered as single dose through gavage by LC-MS/MS analysis relative to control; format: toxicity, organism-based, Canis lupus familiaris; settings: in vivo

Mitogen-activated protein kinase 14 (Homo sapiens), sequence (Q16539 whole entry, the tested form may be a part): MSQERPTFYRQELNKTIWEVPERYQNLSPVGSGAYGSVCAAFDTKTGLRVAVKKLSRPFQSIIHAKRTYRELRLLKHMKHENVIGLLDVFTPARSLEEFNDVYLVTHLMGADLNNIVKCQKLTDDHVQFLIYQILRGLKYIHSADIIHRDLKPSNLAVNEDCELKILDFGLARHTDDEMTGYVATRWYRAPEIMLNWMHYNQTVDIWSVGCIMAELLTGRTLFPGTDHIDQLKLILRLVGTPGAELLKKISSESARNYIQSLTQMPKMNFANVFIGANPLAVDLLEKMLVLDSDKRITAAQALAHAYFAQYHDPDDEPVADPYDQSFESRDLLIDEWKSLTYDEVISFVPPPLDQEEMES
RAC-beta serine/threonine-protein kinase (Homo sapiens), sequence (P31751 whole entry, the tested form may be a part): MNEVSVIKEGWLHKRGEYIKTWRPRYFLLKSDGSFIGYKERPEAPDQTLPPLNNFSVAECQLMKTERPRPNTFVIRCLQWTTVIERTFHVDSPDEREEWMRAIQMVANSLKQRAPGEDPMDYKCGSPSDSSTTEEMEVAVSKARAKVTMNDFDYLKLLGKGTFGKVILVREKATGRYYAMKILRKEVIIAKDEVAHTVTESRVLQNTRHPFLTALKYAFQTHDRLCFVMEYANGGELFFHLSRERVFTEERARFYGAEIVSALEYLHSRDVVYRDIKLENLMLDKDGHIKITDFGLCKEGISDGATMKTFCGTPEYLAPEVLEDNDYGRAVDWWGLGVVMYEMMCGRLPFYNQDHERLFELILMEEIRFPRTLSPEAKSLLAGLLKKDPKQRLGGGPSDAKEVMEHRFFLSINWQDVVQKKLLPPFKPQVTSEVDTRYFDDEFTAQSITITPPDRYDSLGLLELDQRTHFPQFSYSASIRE
Rho-associated protein kinase 1 (Homo sapiens), sequence (Q13464 2-1354 limits assumed): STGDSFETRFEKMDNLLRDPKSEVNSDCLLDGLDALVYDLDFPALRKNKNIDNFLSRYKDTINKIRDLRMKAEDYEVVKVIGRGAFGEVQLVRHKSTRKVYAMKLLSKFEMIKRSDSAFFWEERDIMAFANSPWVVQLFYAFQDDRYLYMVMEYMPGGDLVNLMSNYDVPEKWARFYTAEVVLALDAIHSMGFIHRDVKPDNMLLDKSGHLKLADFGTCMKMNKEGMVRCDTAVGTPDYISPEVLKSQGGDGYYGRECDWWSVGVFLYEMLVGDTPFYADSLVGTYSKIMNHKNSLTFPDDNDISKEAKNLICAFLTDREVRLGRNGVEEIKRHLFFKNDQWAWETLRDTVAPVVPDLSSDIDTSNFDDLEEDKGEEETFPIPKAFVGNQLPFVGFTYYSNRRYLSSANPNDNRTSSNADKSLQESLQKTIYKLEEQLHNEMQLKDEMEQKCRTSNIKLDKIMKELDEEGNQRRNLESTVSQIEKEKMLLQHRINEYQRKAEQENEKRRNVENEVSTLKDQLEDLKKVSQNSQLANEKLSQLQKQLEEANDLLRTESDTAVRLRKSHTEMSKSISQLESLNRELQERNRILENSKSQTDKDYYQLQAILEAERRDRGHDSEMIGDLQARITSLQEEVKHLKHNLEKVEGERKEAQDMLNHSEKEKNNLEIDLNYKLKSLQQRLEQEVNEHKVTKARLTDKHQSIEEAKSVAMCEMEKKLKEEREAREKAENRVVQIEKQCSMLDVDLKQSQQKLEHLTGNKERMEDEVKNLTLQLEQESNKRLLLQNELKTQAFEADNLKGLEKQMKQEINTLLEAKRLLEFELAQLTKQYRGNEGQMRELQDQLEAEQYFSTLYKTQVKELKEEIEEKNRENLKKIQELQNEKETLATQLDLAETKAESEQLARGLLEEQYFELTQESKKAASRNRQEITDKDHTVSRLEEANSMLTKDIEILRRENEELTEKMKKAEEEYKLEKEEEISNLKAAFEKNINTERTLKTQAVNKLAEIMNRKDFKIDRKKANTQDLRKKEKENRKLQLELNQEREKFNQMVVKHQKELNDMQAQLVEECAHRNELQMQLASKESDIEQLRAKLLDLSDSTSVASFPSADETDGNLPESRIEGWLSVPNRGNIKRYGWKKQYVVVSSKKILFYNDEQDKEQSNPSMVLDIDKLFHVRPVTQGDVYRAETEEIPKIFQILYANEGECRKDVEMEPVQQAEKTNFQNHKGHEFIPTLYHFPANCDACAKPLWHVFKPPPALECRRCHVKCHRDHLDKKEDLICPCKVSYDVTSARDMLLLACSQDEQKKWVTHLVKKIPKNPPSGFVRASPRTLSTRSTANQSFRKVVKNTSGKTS
Bile salt export pump, sequence (O95342 whole entry): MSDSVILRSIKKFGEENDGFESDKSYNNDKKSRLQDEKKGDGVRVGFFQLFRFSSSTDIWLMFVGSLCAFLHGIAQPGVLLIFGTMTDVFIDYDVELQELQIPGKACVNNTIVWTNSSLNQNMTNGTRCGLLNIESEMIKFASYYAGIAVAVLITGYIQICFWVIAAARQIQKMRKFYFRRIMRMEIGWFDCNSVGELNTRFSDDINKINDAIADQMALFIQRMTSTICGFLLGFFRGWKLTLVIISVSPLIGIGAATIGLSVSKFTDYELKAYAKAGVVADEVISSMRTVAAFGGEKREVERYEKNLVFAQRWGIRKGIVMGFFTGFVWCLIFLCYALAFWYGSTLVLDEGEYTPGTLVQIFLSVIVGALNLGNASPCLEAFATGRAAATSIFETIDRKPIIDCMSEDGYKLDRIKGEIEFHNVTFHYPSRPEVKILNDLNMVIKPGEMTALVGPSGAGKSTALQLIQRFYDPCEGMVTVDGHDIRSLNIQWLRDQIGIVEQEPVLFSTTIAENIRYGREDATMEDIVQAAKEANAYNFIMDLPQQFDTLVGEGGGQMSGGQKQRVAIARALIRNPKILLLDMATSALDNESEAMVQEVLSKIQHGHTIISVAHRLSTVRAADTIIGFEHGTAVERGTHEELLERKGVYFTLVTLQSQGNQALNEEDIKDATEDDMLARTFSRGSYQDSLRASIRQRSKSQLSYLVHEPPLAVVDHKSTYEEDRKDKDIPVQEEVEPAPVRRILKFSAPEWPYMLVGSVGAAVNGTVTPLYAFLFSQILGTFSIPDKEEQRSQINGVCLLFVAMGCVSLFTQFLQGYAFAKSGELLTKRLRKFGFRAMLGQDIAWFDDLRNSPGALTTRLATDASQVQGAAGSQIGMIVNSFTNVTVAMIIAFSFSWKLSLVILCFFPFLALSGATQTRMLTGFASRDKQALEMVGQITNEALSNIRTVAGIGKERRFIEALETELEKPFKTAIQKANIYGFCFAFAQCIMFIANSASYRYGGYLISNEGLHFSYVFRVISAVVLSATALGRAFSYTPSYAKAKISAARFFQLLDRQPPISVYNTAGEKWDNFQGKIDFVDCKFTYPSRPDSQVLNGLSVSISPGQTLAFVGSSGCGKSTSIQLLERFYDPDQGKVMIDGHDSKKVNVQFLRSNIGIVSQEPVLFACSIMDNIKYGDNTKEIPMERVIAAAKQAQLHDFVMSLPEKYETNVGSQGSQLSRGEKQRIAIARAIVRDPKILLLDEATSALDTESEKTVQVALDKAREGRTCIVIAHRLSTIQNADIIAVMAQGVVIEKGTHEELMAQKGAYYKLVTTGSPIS
Protein kinase C delta type (Homo sapiens), sequence (Q05655 whole entry, looked up, the tested form may be a part): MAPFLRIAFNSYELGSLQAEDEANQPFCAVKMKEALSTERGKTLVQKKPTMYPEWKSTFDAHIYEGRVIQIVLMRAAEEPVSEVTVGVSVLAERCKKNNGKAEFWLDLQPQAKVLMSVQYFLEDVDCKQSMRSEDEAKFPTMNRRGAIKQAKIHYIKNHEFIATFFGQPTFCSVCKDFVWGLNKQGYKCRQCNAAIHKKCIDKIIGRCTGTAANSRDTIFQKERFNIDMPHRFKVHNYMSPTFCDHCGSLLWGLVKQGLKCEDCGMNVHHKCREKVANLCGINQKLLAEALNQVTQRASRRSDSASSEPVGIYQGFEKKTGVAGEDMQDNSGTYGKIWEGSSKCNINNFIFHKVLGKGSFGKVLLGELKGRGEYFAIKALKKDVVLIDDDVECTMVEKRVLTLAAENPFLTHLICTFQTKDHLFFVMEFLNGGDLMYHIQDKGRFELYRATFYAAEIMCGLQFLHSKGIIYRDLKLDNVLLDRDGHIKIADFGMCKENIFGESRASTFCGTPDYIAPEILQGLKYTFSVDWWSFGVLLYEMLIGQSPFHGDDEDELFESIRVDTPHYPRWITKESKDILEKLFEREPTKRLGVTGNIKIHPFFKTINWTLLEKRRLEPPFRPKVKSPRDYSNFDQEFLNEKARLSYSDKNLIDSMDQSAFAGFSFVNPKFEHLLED

IC50 [2]: 7 µM
IC50 [3]: 7 µM
Compound: COCCOCc1cccc(-c2ccc3c(ccc4sc5c(c43)NC[C@@H](C)NC5=O)n2)c1
IC50 (Bile salt export pump): 7 µM

Activity [13]: 96%
IC50 [5]: 5.8 µM
Activity [14]: 105%
Activity [15]: 95%
Activity [16]: 68%
Activity [17]: 66%
Activity [18]: 100%
Compound: H-YARAAARQARAKALNRQLGVAA-OH

IC50 [2]: 7 µM
IC50 [19]: 0.201 µM
IC50 (U-937): 0.15 µM
IC50 [3]: 7 µM
Tmax [22]: 0.167 h
half-life [23]: 9 h
Compound: Cc1ccc(-c2ccc3c(ccc4sc5c(c43)NC[C@@H](C)NC5=O)n2)cn1
inhibition (INH) (Rattus norvegicus [20]): >90%
Activity (Canis familiaris [21]): <= 25000%
inhibition (INH) (Rattus norvegicus [24]): 80%
IC50 (Bile salt export pump): 7 µM
Activity (Canis familiaris [25]): <= 25000%

Continued, compound first:

Compound: H-KKKALNRQLGVAA-OH
inhibition [1]: 64%

Compound: CC[C@H](C)[C@H](NC(=O)[C@H](CCCNC(=N)N)NC(=O)[C@H](CCCNC(=N)N)NC(=O)[C@H](CC(C)C)NC(=O)[C@H](Cc1c[nH]c2ccccc12)NC(=O)[C@H](C)NC(=O)[C@H](CCCCN)NC(=O)[C@@H](NC(=O)[C@H](CCCNC(=N)N)NC(=O)[C@H](CCCNC(=N)N)NC(=O)[C@H](CC(C)C)NC(=O)[C@@H](N)Cc1c[nH]c2ccccc12)[C@@H](C)CC)C(=O)N[C@@H](CCCCN)C(=O)N[C@@H](C)C(=O)N[C@@H](CC(C)C)C(=O)N[C@@H](CC(N)=O)C(=O)N[C@@H](CCCNC(=N)N)C(=O)N[C@@H](CCC(N)=O)C(=O)N[C@@H](CC(C)C)C(=O)NCC(=O)N[C@H](C(=O)N[C@@H](C)C(=O)N[C@@H](C)C(=O)O)C(C)C
inhibition at 10 µM (Fibroblast [4]): 68%
IC50 [5]: 0.74 µM
Activity [6]: 4%
Activity [7]: 18%
inhibition [1]: 80%
Activity [8]: 0%
Activity [9]: 12%
inhibition at 10 µM (Fibroblast [10]): 76%
Activity [11]: 11%
Activity [12]: 61%
